Experimental data reported in paper PMC9558617 (ACS infectious diseases, 2022).
In brackets after ≈: the same amount, converted by molar mass.

How the values were obtained:
Assay type in all cases: cell-based, Mycobacterium tuberculosis
[1] = system: Mtb strain B3 tatA
[2] = system: Q112-resistant Mtb strains; assay: microbe, parasite or virus in culture
[3] = system: Mtb strain A6 tatB
[4] = system: Mtb strain B1 tatC
[5] = system: Mtb strain A3 tatB
[6] = system: Mtb strain B2 tatC

## C[C@@H](O)[C@H]1C(=O)N2C(C(=O)O)=C(SCCN=CN)C[C@H]12 [Imipenem]
[1]
  resistance (MIC increase) versus wild-type: 16 fold

## CO[C@H]1/C=C/O[C@@]2(C)Oc3c(C)c(O)c4c(O)c(c(/C=N/N5CCN(C)CC5)c(O)c4c3C2=O)NC(=O)/C(C)=C\C=C\[C@H](C)[C@H](O)[C@@H](C)[C@@H](O)[C@@H](C)[C@H](OC(C)=O)[C@@H]1C [Rifampicin]
[2]
  factor of MIC decrease (hypersensitivity) versus wild-type: 3–6 factor

## CC(C)/N=c1\cc2n(-c3ccc(Cl)cc3)c3ccccc3nc-2cc1Nc1ccc(Cl)cc1 [Clofazimine]
[1]
  resistance (MIC increase) versus wild-type: 4 fold

## CN[C@H](CC(C)C)C(=O)N[C@H]1C(=O)N[C@@H](CC(N)=O)C(=O)N[C@H]2C(=O)N[C@H]3C(=O)N[C@H](C(=O)N[C@H](C(=O)O)c4cc(O)cc(O)c4-c4cc3ccc4O)[C@H](O)c3ccc(c(Cl)c3)Oc3cc2cc(c3O[C@@H]2O[C@H](CO)[C@@H](O)[C@H](O)[C@H]2O[C@H]2C[C@](C)(N)[C@H](O)[C@H](C)O2)Oc2ccc(cc2Cl)[C@H]1O [Vancomycin]
[2]
  factor of MIC decrease (hypersensitivity) versus wild-type: 4–5 factor

## Capreomycin
[3]
  MIC A6 tatB: 1.2 µM
[4]
  MIC B1 tatC: 0.78 µM
[5]
  MIC A3 tatB: 0.78 µM
[1]
  MIC B3 tatA: 0.78 µM
[6]
  MIC B2 tatC: 1.2 µM

## CC1(C)S[C@@H]2[C@H](NC(=O)[C@H](N)c3ccccc3)C(=O)N2[C@H]1C(=O)O [Ampicillin]
[2]
  factor of MIC decrease (hypersensitivity) versus wild-type: > 16 factor
[2]; Mycobacterium tuberculosis
  MIC: 1.6 to 3.1 µM (≈ 0.559 to 1.08 µg/mL)

## C[C@]1(COc2ccc(N3CCC(Oc4ccc(OC(F)(F)F)cc4)CC3)cc2)Cn2cc([N+](=O)[O-])nc2O1 [Delamanid]
[2]
  MIC increase versus wild-type: 3–12 fold
